Where two headings read alike, the source gives them in different places.
How the values were obtained:
Format in all cases: cell-based
[1] = tested on: Test Organism 2 (Escherichia Coli NIHJ JC-2 (IFO 12734)); experiment: influence of the addition of horse serum on the MIC
[2] = tested on: Test Organism 1 (Escherichia Coli NIHJ); experiment: as above
[3] = tested on: Test Organism 17 (Pseudomonas putida IFO 13696); experiment: as above
[4] = tested on: Yersinia enterocolitica 0-5; experiment: antimicrobial activity, serial dilution method on agar plate; conditions: Yersinia enterocolitica, 05; inoculum 1 × 10^8 cells/ml; read-out: Minimum Inhibitory Concentration
[5] = tested on: Serattia marcescens IFO 12648; experiment: as above; conditions: read-out: Minimum Inhibitory Concentration
Procedure, shortened: (§1)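 Reported figure is the lowest compound level (mcg/ml) inhibiting growth on Heart Infusion agar in a serial plate dilution. Suspensions of 1×10^8 and 1×10^6 cells/ml served as inocula.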

[6] = tested on: Yersinia enterocolitica 0-3; experiment: as above; conditions: read-out: Minimum Inhibitory Concentration
Procedure, shortened: as §1

[7] = tested on: Klebsiella pneumoniae ST-101; experiment: as above; conditions: read-out: Minimum Inhibitory Concentration
Procedure, shortened: as §1

[8] = tested on: Staphylococcus aureus FDA 209 P; experiment: as above; conditions: read-out: Minimum Inhibitory Concentration
Procedure, shortened: as §1

[9] = tested on: Corinebacterium diphteriae; experiment: as above; conditions: read-out: Minimum Inhibitory Concentration
Procedure, shortened: as §1

[10] = horse serum 0%, inoculum 10^6, read-out: Minimum Inhibitory Concentration
[11] = horse serum 0%, inoculum 10^8, read-out: Minimum Inhibitory Concentration
[12] = horse serum 10%, inoculum 10^6, read-out: Minimum Inhibitory Concentration
[13] = horse serum 10%, inoculum 10^8, read-out: Minimum Inhibitory Concentration
[14] = horse serum 20%, inoculum 10^6, read-out: Minimum Inhibitory Concentration
[15] = horse serum 20%, inoculum 10^8, read-out: Minimum Inhibitory Concentration
[16] = horse serum 40%, inoculum 10^6, read-out: Minimum Inhibitory Concentration
[17] = horse serum 40%, inoculum 10^8, read-out: Minimum Inhibitory Concentration

Measured: MIC

CC1CCc2cc(F)cc3c(=O)c(C(=O)O)cn1c23 (centres unmarked) [F]
0.1 µg/mL: [3]; IFO13696, horse serum 0%, inoculum 10^6, read-out: Minimum Inhibitory Concentration | [7]; ST101, inoculum 1 × 10^6 cells/ml
0.8 µg/mL: [1]; [10] | [1]; [11] | [1]; [12] | [1]; [13] | [1]; [14] | [1]; [15] | [5]; inoculum 1 × 10^8 cells/ml | [6]; Yersinia enterocolitica, 03, inoculum 1 × 10^8 cells/ml
1.6 µg/mL: [1]; [16] | [1]; [17] | [2]; [10] | [2]; [11] | [8]; FDA209, inoculum 1 × 10^6 cells/ml
> 6.3 µg/mL: [9]; inoculum 1 × 10^6 cells/ml
0.2 µg/mL: [3]; IFO13696, horse serum 0%, inoculum 10^8, read-out: Minimum Inhibitory Concentration | [3]; IFO13696, horse serum 10%, inoculum 10^6, read-out: Minimum Inhibitory Concentration | [3]; IFO13696, horse serum 20%, inoculum 10^6, read-out: Minimum Inhibitory Concentration | [3]; IFO13696, horse serum 20%, inoculum 10^8, read-out: Minimum Inhibitory Concentration | [3]; IFO13696, horse serum 40%, inoculum 10^6, read-out: Minimum Inhibitory Concentration | [3]; IFO13696, horse serum 40%, inoculum 10^8, read-out: Minimum Inhibitory Concentration | [7]; ST101, inoculum 1 × 10^8 cells/ml
6.3 µg/mL: [2]; [15]
3.1 µg/mL: [2]; [12] | [2]; [13] | [2]; [14] | [8]; FDA209, inoculum 1 × 10^8 cells/ml
> 25 µg/mL: [9]; inoculum 1 × 10^8 cells/ml
0.4 µg/mL: [3]; IFO13696, horse serum 10%, inoculum 10^8, read-out: Minimum Inhibitory Concentration | [4] | [5]; inoculum 1 × 10^6 cells/ml | [6]; Yersinia enterocolitica, 03, inoculum 1 × 10^6 cells/ml
12.5 µg/mL: [2]; [16] | [2]; [17]

— patent US4416884A, “Piperazinylbenzoheterocyclic compounds” (Otsuka Pharmaceutical Co., Ltd., priority 1978, dated 1983)
